Experimental data from US20220193047A1, “METHODS OF ENHANCING RADIOTHERAPY USING FERROPTOSIS INDUCERS AS RADIOSENSITIZERS” (THE TRUSTEES OF COLUMBIA UNIVERSITY IN THE CITY OF NEW YORK, priority 2019, published 2022).
“Also recorded” adds a separate entry of the source.

What was measured:
Assay type in all cases: cell-based
[1] = system: γH2AX foci in HT-1080 cells; assay: γH2AX immunofluorescence staining; details: for Number of γH2AX foci: HT-1080, 30 minutes, 0 or 6 Gy, 10 μM IKE, 1 μM RSL3, 10 μM ferrostatin-1; for γH2AX foci formation, compound alone: HT-1080, 6 h, no radiation; for γH2AX foci in irradiated groups vs DMSO: HT-1080, 6 h post-treatment, 6 Gy
Description: 10,000 cells were seeded on cover slips placed inside wells of 6-well plates. The next day, cells were treated with ferroptosis modulators and/or radiation, then returned to the incubator for 30 minutes or 6 hours. After the growth medium was removed, the cells were washed with PBS and fixed with 100 μl 4% paraformaldehyde per well for 10 minutes at room temperature. After three washes with PBS, cells were permeabilized with 100 μl Triton X-100 (0.1% v/v) per well for 10 minutes incubation at room temperature. Non-specific protein binding was blocked with 100 μl of BSA (1% v/v) per well for 20 minutes at room temperature. After removing excess BSA, 100 μl of primary mouse monoclonal anti-phospho histone-H2AX antibody (1:500) was added to each well for a 1-hour incubation at room temperature. Cells were washed with PBS and incubated with 100 μl of secondary antibody per well for 45 minutes at room temperature in the dark. Cells were washed with PBS and mounted on slides with one drop of Prolong anti-fade reagent with DAPI (Invitrogen) per coverslip. Slides were stored at 4° C. in the dark before analysis on a Zeiss LSM 700 confocal microscope with constant laser intensity for all analyzed samples.
Mechanisms of the cellular lethality from radiation are thought to be mainly derived from the downstream caspase-dependent apoptosis induced by DNA damage, including complex double-strand DNA breaks (Lomax et al., 2013; Morgan and Lawrence, 2015). Therefore, it was desired to determine if ferroptosis inducers and radiation induce DNA damage or affect DNA repair. The extent of these effects of radiation was evaluated by measuring DNA damage and caspase activation in HT-1080 cells co-treated with radiation and ferroptosis inducers. […] The cells were either treated with radiation (6 Gy) or not irradiated (0 Gy) as a control.

A549 cells = assay: Clonogenic assay with radiation, A549
Description: (§1) 500 cells were seeded per well in 6-well plates in their respective growth media and incubated overnight. The next day, cells were co-treated with DMSO or compounds and radiation using a Gammacell 40 Caesium-137 irradiator (Theratronics). Plates were monitored every day using a light microscope for formation of colonies in the DMSO-treated wells. When colonies of >50 cells are clearly visible, the growth medium was discarded from all plates. The cells were washed with PBS, then fixed and stained with crystal violet solution (0.05% crystal violet, 1% formaldehyde, 1% methanol in PBS). Colonies were then directly visualized and counted.
The coefficient of drug interaction (CDI), used to compute interaction between two drugs, was used to quantify synergy between cell death inducers and radiation according to the formula CDI=AB/(A×B), where AB is the surviving fraction of the combination treatment, and A and B are the surviving fractions of the individual treatments. […]
It was then tested whether cell death enhancement of radiation with ferroptosis inducers occurred across diverse tumor cell types. […] In addition to the initial ferroptosis-sensitive HT-1080 sarcoma cell line, glioma and lung cancer cells were evaluated, due to the clinical relevance of radiation therapy for the treatment of these tumor types. […]

[2] = system: lipid peroxidation in HT-1080 cells; assay: Lipid ROS assay by flow cytometry (C11-BODIPY); details: HT-1080, 24 h, 6 Gy radiation with 1 μM IKE or 50 nM RSL3; ferrostatin-1 co-treatment
Description: 0.5 million cells were seeded in 10 cm dishes. The next day, they were co-treated with ferroptosis-modulating compounds and radiation and returned to the incubator. On the following day, cells were harvested in 15 ml tubes and washed twice with PBS followed by re-suspending in 500 μl of PBS containing 10 μM of BODIPY-C11 dye (Thermo Fisher Scientific, cat #D3861), and incubated at 37° C. for 30 minutes. The cells were then collected at 300× g for 5 minutes, washed with PBS three times, and subjected to the flow cytometry analysis. C6 flow cytometry system (BD Accuri cytometers) was used for the flow cytometer analysis. A minimum of 10,000 cells were analyzed per condition.
To confirm that radiation causes lipid peroxidation in these cells, lipid peroxidation was also measured with C-11 BODIPY (581/591), a membrane-targeted lipid sensor dye. […] The resulting enhancement was reversed in both cases by also co-treating the cells with ferrostatin-1.

HT-1080 cells [3] = assay: Clonogenic assay with Cs-137 gamma radiation, HT-1080; details: for Highest observed coefficient of Drug Interaction (CDI) in combination with IR: HT-1080; for Enhancement of radiation effect on clonogenic survival: HT-1080, cell death inducer plus radiation; for CDI with 4 Gy IR / CDI with 2 Gy IR: HT-1080 cells, CDI<1 synergy; for CDI with 2 Gy IR: inducer concentration (300 nM IKE, 20 nM RSL3, 1 nM staurosporine, 2 nM doxorubicin, 300 nM rapamycin, 100 ng/mL TNF + 20 μM Z-VAD-FMK + 300 nM birinapant)
Description: as §1
We tested their ability to prevent clonogenic growth, along with DMSO-treated controls.
The coefficient of drug interaction (CDI), used to compute interaction between two drugs, was used to quantify synergy between cell death inducers and radiation according to the formula CDI=AB/(A×B), where AB is the surviving fraction of the combination treatment, and A and B are the surviving fractions of the individual treatments.

[4] = system: percent tail DNA in HT-1080 cells; assay: Comet assay; details: for DNA single strand damage (percent tail DNA), compound alone: HT-1080, 10 μM IKE or 1 μM RSL3, 30 minutes or 4 hours; for DNA damage (percent tail DNA), combined with radiation: HT-1080, 6 Gy, 30 minutes or 4 hours
Description: 100,000 HT-1080 cells were seeded per well in 6-well plates and incubated overnight. On the next day, the cells were treated with ferroptosis modulators and/or radiation, then returned to the incubator for 30 minutes or 4 hours before being harvested with trypsin and counted. The comet assay was performed using the CometAssay kit (Trevigen) following the alkaline comet assay product instructions. All images were captured on a Zeiss LSM 700 confocal microscope with constant laser intensity for all analyzed samples. The fluorescent signal of each comet was analyzed using NIH ImageJ software.
To test for other forms of DNA damage that cannot be detected by the γH2AX assay, a comet assay, which detects single strand DNA damage in addition to double strand breaks, was performed in HT-1080 cells treated under the same conditions.

HT-1080 cells [5] = assay: Microbeam irradiation and clonogenic assay; details: HT-1080, clonogenic survival
Description: 300-500 HT-1080 cells were plated on polypropylene film treated with 3.5 μg/cm^2 Cell-Tak adhesive (BD Biosciences). The next day, cells were stained with Hoechst 33342 for 30 min. Cells were imaged, and their center-of-gravity coordinates were registered to automatically locate them by the microbeam control program. For nuclear irradiation, protons (^1H+) were directed by a precision beam to the center of the nucleus. For cytoplasmic irradiation, protons were directed to two locations 7 μm away from the ends of the major axis of each nucleus, as previously described (Wu et al., 1999). In each case, the beam has an accuracy of ±0.2 μm with 95% efficiency. Post-irradiation, cells were trypsinized and re-plated at a density of 500 cells per well in 6-well plates for clonogenic assays.
To target the microbeam, cells were labeled with Hoechst stain and imaged. Nuclear radiation was delivered to the center of gravity of the cell nucleus, whereas cytoplasmic radiation was delivered to two sites 7 microns away from the nuclear edge along the nuclear long axis (FIG. 5A). Using this method, we first established dose responses of these cells to nuclear and cytoplasmic radiation. […] Compared to conventional photon radiation, these doses approximately correspond to 1 Gy to the nucleus and between 1-5 Gy to the cytoplasm, a therapeutically relevant dose range that is consistent with our previous experiments.

PTGS2 mRNA = assay: RT-qPCR of PTGS2 mRNA; details: HT-1080, 6 Gy radiation, 24 hours; 100 nM RSL3 or 10 μM ferrostatin-1
Description: RNA was extracted using the Qiashredder and QIAGEN RNeasy Mini kits (QIAGEN) according to the manufacturer's protocol. 2 μg total RNA for each sample was used as input for each reverse transcription reaction. Quantitative PCR reactions were performed using the Power SYBR Green PCR Master Mix (Thermo Fisher Scientific). Triplicate samples per condition were analyzed on an Applied Biosystems 7300 qPCR instrument using absolute quantification settings. Differences in mRNA levels compared to ACTB internal reference control were computed between control and experimental conditions using the ΔΔCt method. The primers used in this study are listed below.

CC(C)Oc1ccc(C(=O)Cn2ccnc2)cc1-n1c(CN2CCN(C(=O)COc3ccc(Cl)cc3)CC2)nc2ccccc2c1=O [IKE, imidazole ketone erastin]
Number of γH2AX foci [1]: did not affect the number of observed γH2AX foci
γH2AX foci formation, compound alone [1]: did not result in γH2AX foci formation
γH2AX foci in irradiated groups vs DMSO [1]: no differences were observed
Highest observed coefficient of Drug Interaction (CDI) in combination with IR (A549 cells): 0.30
C-11 BODIPY fluorescence [2]: significantly increased C-11 BODIPY fluorescence
Highest observed coefficient of Drug Interaction (CDI) in combination with IR (HT-1080 cells [3]): 0.17
Enhancement of radiation effect on clonogenic survival (HT-1080 cells [3]): significantly enhanced the effects of radiation
CDI with 4 Gy IR (HT-1080 cells [3]): 0.17
CDI with 2 Gy IR (HT-1080 cells [3]): 0.35
DNA single strand damage (percent tail DNA), compound alone [4]: not detect a significant increase
DNA damage (percent tail DNA), combined with radiation [4]: no significant enhancement of DNA damage
Synergy with cytoplasmic microbeam radiation (HT-1080 cells [5]): synergized strongly

COC(=O)c1ccc([C@@H]2c3[nH]c4ccccc4c3C[C@@H](C(=O)OC)N2C(=O)CCl)cc1 [RSL3, Ras Synthetic Lethal 3]
PTGS2 mRNA (PTGS2 mRNA): even further enhanced
Number of γH2AX foci [1]: did not affect the number of observed γH2AX foci
γH2AX foci formation, compound alone [1]: did not result in γH2AX foci formation
γH2AX foci in irradiated groups vs DMSO [1]: no differences were observed
Highest observed coefficient of Drug Interaction (CDI) in combination with IR (A549 cells): 0.31
C-11 BODIPY fluorescence [2]: significantly increased C-11 BODIPY fluorescence
Highest observed coefficient of Drug Interaction (CDI) in combination with IR (HT-1080 cells [3]): 0.09
Enhancement of radiation effect on clonogenic survival (HT-1080 cells [3]): significantly enhanced the effects of radiation
CDI with 4 Gy IR (HT-1080 cells [3]): 0.09
CDI with 2 Gy IR (HT-1080 cells [3]): 0.27
DNA single strand damage (percent tail DNA), compound alone [4]: not detect a significant increase
DNA damage (percent tail DNA), combined with radiation [4]: no significant enhancement of DNA damage
Synergy with cytoplasmic microbeam radiation (HT-1080 cells [5]): synergized strongly
Synergy with nuclear microbeam radiation (HT-1080 cells [5]): no synergy

CCOC(=O)c1ccc(NC2CCCCC2)c(N)c1 [ferrostatin-1]
PTGS2 mRNA (PTGS2 mRNA): reversed this induction of PTGS2
Number of γH2AX foci [1]: did not affect the number of observed γH2AX foci
γH2AX foci in irradiated groups vs DMSO [1]: no differences were observed
C-11 BODIPY fluorescence [2]: reversed
Colony formation after radiation alone (HT-1080 cells [3]; HT-1080, 2 or 4 Gy radiation, no ferroptosis inducer): significantly rescued colony formation; also recorded: partially rescued cell death induced by radiation alone
Synergy between IKE or RSL3 and radiation in colony formation (HT-1080 cells [3]; HT-1080, co-treatment with ferroptosis inhibitor): suppress the synergy
Synergy between sorafenib and radiation in colony formation (HT-1080 cells [3]; HT-1080, co-treatment with ferrostatin-1): partially suppressible
DNA damage (percent tail DNA), combined with radiation [4]: did not observe a significant protective effect
